Source: US8999956B2, “N-[(het)arylalkyl)] pyrazole(thio)carboxamides and their heterosubstituted analogues” (Bayer Intellectual Property GmbH, priority 2010, dated 2015)
Where “and” joins values, the source holds several entries; their conditions need not be identical. Identical values can stand only once. Like-named read-outs stand apart in the source and are kept apart here.

Key:
Alternaria solani = test: In vivo preventive test on Alternaria solani (tomato); conditions: 500 ppm of active ingredient, evaluated 7 days after inoculation
In short: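 Young tomato plants sprayed preventively with compound in DMF/alkylarylpolyglycolether emulsion diluted in water to the stated rate. Inoculation with aqueous Alternaria solani spore suspension one day after treatment.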

[1] = tested on: Fusarium nivale (var. majus); test: In vivo preventive test on Fusarium nivale (wheat); conditions: 500 ppm of active ingredient, evaluated 5 days after inoculation
Procedure: (§1) Solvent: 49 parts by weight of N,N-dimethylacetamide Emulsifier: 1 part by weight of alkylaryl polyglycol ether To produce a suitable preparation of active compound, 1 part by weight of active compound or active compound combination is mixed with the stated amounts of solvent and emulsifier, and the concentrate is diluted with water to the desired concentration. To test for preventive activity, young plants are sprayed with the preparation of active compound or active compound combination at the stated rate of application. After the spray coating has been dried, the plants are slightly injured by using a sandblast and afterwards they are sprayed with a conidia suspension of Fusarium nivale (var. majus).

Phakopsora pachyrhizi = test: In vivo protective test on Phakopsora pachyrhizi (soybeans); conditions: Table N, 250 ppm of active ingredient, evaluated 11 days after inoculation
Puccinia triticina = test: In vivo preventive test on Puccinia triticina (wheat); conditions: Table K, 500 ppm of active ingredient, evaluated 8 days after inoculation
Pyricularia oryzae = conditions: in vivo
[2] = tested on: Blumeria graminis fsp. hordei; test: In vivo preventive test on Blumeria graminis (barley); conditions: 500 ppm of active ingredient, evaluated 7 days after inoculation
Procedure: as §1, with “dusted” for “slightly injured by using a sandblast and afterwards they are sprayed”, “spores” for “a conidia suspension”, “Blumeria graminis fsp. hordei.” for “Fusarium nivale (var. majus).”

Pyrenophora teres = test: In vivo preventive test on Pyrenophora teres (barley); conditions: 500 ppm of active ingredient, evaluated 7-9 days after inoculation
In short: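 Compound formulated in N,N-dimethylformamide with alkylaryl polyglycol ether emulsifier and diluted in water, then sprayed on young barley plants at the stated application rate. Plants inoculated one day later with aqueous Pyrenophora teres spore suspension, testing preventive protection.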

Uromyces appendiculatus = test: In vivo preventive test on Uromyces appendiculatus (beans); conditions: 100 ppm of active ingredient, evaluated 10 days after inoculation
In short: (§2)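 Young plants sprayed preventively at the stated application rate with compound dissolved in acetone/N,N-dimethylacetamide plus alkylaryl polyglycol ether emulsifier and diluted with water to the desired concentration.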

Cochliobolus miyabeanus = test: In vivo protective test on Cochliobolus miyabeanus (rice); conditions: Table M, 250 ppm of active ingredient, evaluated 4 days after inoculation
Sphaerotheca fuliginea = test: In vivo preventive test on Sphaerotheca fuliginea (cucumber); conditions: 500 ppm of active ingredient, evaluated 7 days after inoculation
In short: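 Young cucumber plants sprayed with compound (in DMF with alkylarylpolyglycolether emulsifier, diluted in water) at the stated application rate. Inoculated one day later with aqueous Sphaerotheca fuliginea spore suspension. Plants then held in greenhouse at approximately 23° C and approximately 70% relative humidity.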

Venturia inaequalis = test: In vivo preventive test on Venturia inaequalis (apple scab); conditions: 100 ppm of active ingredient, evaluated 10 days after inoculation
In short: as §2

[3] = log P by HPLC on reversed-phase column (EEC Directive 79/831 Annex V.A8); assay type: physicochemical
Procedure: In table 1, the log P values were determined in accordance with EEC Directive 79/831 Annex V.A8 by HPLC (High Performance Liquid Chromatography) on a reversed-phase column (C18), using the method described below: Temperature: 40° C.; […]

Septoria tritici = test: In vivo preventive test on Septoria tritici (wheat); conditions: 500 ppm of active ingredient, evaluated 21 days after inoculation
In short: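 Compound formulated in N,N-dimethylacetamide with alkylaryl polyglycol ether emulsifier and diluted in water to the stated rate. Young wheat plants sprayed preventively; after the deposit dried, they were inoculated with a Septoria tritici spore suspension.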

Aspergillus parasiticus = test: microbe, parasite or virus in culture; assay type: cell-based
[4] = tested on: aflatoxines produced by Aspergillus parasiticus; test: microbe, parasite or virus in culture; assay type: cell-based
Botrytis cinerea = test: In vivo preventive test on Botrytis cinerea (beans); conditions: Table L, 500 ppm of active ingredient, lesion size 2 days after inoculation
In short: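 Young bean plants sprayed preventively with compound in acetone/dimethylacetamide/emulsifier diluted in water; after drying, each leaf inoculated with 2 agar pieces bearing Botrytis cinerea. Kept dark at 20° C, 100% humidity; lesion size scored at 2 days as % efficacy (0% = untreated, 100% = no disease).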

Leptosphaeria nodorum = test: In vivo preventive test on Leptosphaeria nodorum (wheat); conditions: 500 ppm of active ingredient, evaluated 7-9 days after inoculation
In short: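 Compound formulated in N,N-dimethylacetamide with alkylaryl polyglycol ether emulsifier and diluted with water. Young wheat plants were sprayed at the stated application rate, then inoculated one day later with an aqueous spore suspension of L. nodorum.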

Fusarium graminearum = conditions: in vivo

SMILES	Efficacy (Alternaria solani) [%]	Efficacy [1] [%]	Efficacy (Phakopsora pachyrhizi) [%]	Efficacy (Puccinia triticina) [%]	Efficacy (Pyricularia oryzae) [%]	Efficacy [2] [%]	Efficacy (Pyrenophora teres) [%]	Efficacy (Uromyces appendiculatus) [%]	Efficacy (Cochliobolus miyabeanus) [%]	Efficacy (Sphaerotheca fuliginea) [%]	Efficacy (Venturia inaequalis) [%]	logP [3]	Efficacy (Septoria tritici) [%]	% Inhibition of fungal growth at 50 μM (Aspergillus parasiticus) [%]	% Inhibition of Aflatoxin at 50 μM [4] [%]	Efficacy (Botrytis cinerea) [%]	Efficacy (Leptosphaeria nodorum)	% Inhibition of fungal growth at 50 μM (Aspergillus parasiticus; 50 µM) [%]	Efficacy (Fusarium graminearum) [%]	% Inhibition of Aflatoxin at 50 μM ([4]; 50 µM) [%]
Cn1nc(C(F)F)c(C(=O)NC2CCCCC2CCC(C)(C)C)c1F (single isomer, unassigned) [Example 357]	100	100	85	100	97	100	100	100	93	100	100	4.50 isomer A	100	–	–	–	–	–	–	–
CCCCC1CCCC1NC(=O)c1c(C(F)F)nn(C)c1F (centres unmarked) [Example 306]	100	100	–	95	95	100	100	70	95	95	99	3.59	–	100	100	94	–	–	–	–
CCCC1CCCCC1NC(=O)c1c(C(F)F)nn(C)c1F (single isomer, unassigned) [Example 344]	100	100	–	100	95	100	100	–	95	100	–	3.61 isomer B	94	–	100	100	90%	89	–	–
Cn1nc(C(F)F)c(C(=O)N(CCOc2c(Cl)cccc2Cl)C2CC2)c1Cl [Example 161]	–	–	–	90	–	100	100	–	–	–	–	3.69	80	–	–	–	90%	–	86	–
CC(C)CC(C)C1CCCCC1NC(=O)c1c(C(F)F)nn(C)c1F (centres unmarked) [Example 339]	100	100	98	100	98	100	94	100	92	100	100	4.54	100	100	100	–	70% and 94%	–	–	–
CCCCC1CCCCC1NC(=O)c1c(C(F)F)nn(C)c1F (single isomer, unassigned) [Example 329]	100	100	–	100	98	100	100	100	98	100	100	3.80 isomer A	100	–	100	99	90%	97	–	–
CCCCC1CCCCC1NC(=O)c1c(C(F)F)nn(C)c1F (single isomer, unassigned) [Example 330]	95	100	–	80	80	100	100	–	85	88	–	4.06 isomer B	78	–	100	–	–	87	–	–
CC(C)CC(C)C1CCCC1NC(=O)c1c(C(F)F)nn(C)c1F (mixture of isomers) [Example 315]	100	100	–	95	95	100	100	100	97	71	100	–	100	–	100	70	–	100	–	–
Cn1nc(C(F)F)c(C(=O)N(CC#Cc2ccccc2)C2CC2)c1F [Example 271]	–	–	–	89	–	78	95	–	–	98	–	3.19	88	–	–	–	90%	–	93	–
Cn1nc(C(F)F)c(C(=O)N(CCOc2c(Cl)cccc2Cl)C2CC2)c1F [Example 162]	–	–	–	80	–	100	95	–	–	95	–	3.55	90	–	–	–	90%	100	100	100
CC(CCc1c(Cl)cc(Cl)cc1Cl)NC(=O)c1c(C(F)F)nn(C)c1F (centres unmarked) [Example 215]	95	71	–	–	98	100	100	–	98	100	–	4.29	90	100	100	–	–	–	–	–
CC(C)CC(C)C1CCCC1NC(=O)c1c(C(F)F)nn(C)c1Cl (mixture of isomers) [Example 311]	100	100	98	100	96	100	100	100	97	90	100	–	93	–	–	–	–	97	–	100
CON(C(=O)c1c(C(F)F)nn(C)c1F)C(C)CCc1c(Cl)cc(Cl)cc1Cl (centres unmarked) [Example 217]	–	100	–	89	97	100	100	–	98	100	100	4.77	100	100	100	–	78%	–	–	–
CC(C)CC(C)C1CCCCC1NC(=O)c1c(C(F)F)nn(C)c1F (single isomer, unassigned) [Example 338]	100	100	98	100	97	100	100	–	96	100	100	4.73 isomer B	100	100	100	–	–	–	–	–
